From the supplement of paper PMC13380429

Experiments:
Details in all cases: 72 h
U2OS [1] = test: cell viability relative to DMSO; higher = less toxic
Caco-2 [2] = test: as above
HepG2 [3] = test: as above
U2OS [4] = test: drug sensitivity score (DSS) for viability; higher = more toxic; extreme values may be limits of the assay
Caco-2 [5] = test: as above
HepG2 [6] = test: as above
U2OS [7] = test: relative viability EC50 (midpoint between 100% and the lowest measured viability); higher = less toxic
Caco-2 [8] = test: as above
HepG2 [9] = test: as above
Vero E6 [10] = test: cell viability relative to DMSO; higher = less toxic
Vero E6 [11] = test: drug sensitivity score (DSS) for viability; higher = more toxic; extreme values may be limits of the assay
Vero E6 [12] = test: relative viability EC50 (midpoint between 100% and the lowest measured viability); higher = less toxic
Calu-3 [13] = test: cell viability relative to DMSO; higher = less toxic
Calu-3 [14] = test: drug sensitivity score (DSS) for viability; higher = more toxic; extreme values may be limits of the assay
Calu-3 [15] = test: relative viability EC50 (midpoint between 100% and the lowest measured viability); higher = less toxic

| SMILES | cell viability (U2OS [1]; 1 nM) | cell viability (U2OS [1]; 10 nM) | cell viability (U2OS [1]; 100 nM) | cell viability (U2OS [1]; 1000 nM) | cell viability (U2OS [1]; 10000 nM) | cell viability (Caco-2 [2]; 1 nM) | cell viability (Caco-2 [2]; 10 nM) | cell viability (Caco-2 [2]; 100 nM) | cell viability (Caco-2 [2]; 1000 nM) | cell viability (Caco-2 [2]; 10000 nM) | cell viability (HepG2 [3]; 1 nM) | cell viability (HepG2 [3]; 10 nM) | cell viability (HepG2 [3]; 100 nM) | cell viability (HepG2 [3]; 1000 nM) | cell viability (HepG2 [3]; 10000 nM) | drug sensitivity score (U2OS [4]) | drug sensitivity score (Caco-2 [5]) | drug sensitivity score (HepG2 [6]) | relative viability EC50 (U2OS [7]) | relative viability EC50 (Caco-2 [8]) | relative viability EC50 (HepG2 [9]) | cell viability (Vero E6 [10]; 1 nM) | cell viability (Vero E6 [10]; 10 nM) | cell viability (Vero E6 [10]; 100 nM) | cell viability (Vero E6 [10]; 1000 nM) | cell viability (Vero E6 [10]; 10000 nM) | drug sensitivity score (Vero E6 [11]) | relative viability EC50 (Vero E6 [12]) | cell viability (Calu-3 [13]; 1 nM) | cell viability (Calu-3 [13]; 10 nM) | cell viability (Calu-3 [13]; 100 nM) | cell viability (Calu-3 [13]; 1000 nM) | cell viability (Calu-3 [13]; 10000 nM) | drug sensitivity score (Calu-3 [14]) | relative viability EC50 (Calu-3 [15]) |
| --- | --- | --- | --- | --- | --- | --- | --- | --- | --- | --- | --- | --- | --- | --- | --- | --- | --- | --- | --- | --- | --- | --- | --- | --- | --- | --- | --- | --- | --- | --- | --- | --- | --- | --- | --- |
| NCCNS(=O)(=O)c1ccc(Cl)c2ccncc12 [CKI-7] | 95.6% | 100% | 98.8% | 102% | 98.7% | 105% | 110% | 102% | 102% | 86.1% | 110% | 94.9% | 105% | 102% | 107% | 0 | 0.1 | 0 | > 10 µM | > 10 µM | > 10 µM |  |  |  |  |  |  |  |  |  |  |  |  |  |  |
| Cc1c(Cl)cccc1S(=O)(=O)Nc1nc(NCCc2ccccc2)nc2c1CN(Cc1ccccc1)CC2 [CaMKII-IN-1] | 102% | 102% | 105% | 98.9% | 88.7% | 98.9% | 96.1% | 93% | 102% | 83.1% | 88.3% | 97.1% | 90.6% | 101% | 93.6% | 0 | 0.3 | 0 | > 10 µM | > 10 µM | > 10 µM | 95.3% | 104% | 98.2% | 97.7% | 108% | 0 | > 10 µM |  |  |  |  |  |  |  |
| NC(=O)c1nc(F)cnc1O [Favipiravir] |  |  |  |  |  |  |  |  |  |  | 104% | 102% | 109% | 91.8% | 98.2% |  |  | 0 |  |  | > 10 µM |  |  |  |  |  |  |  | 101% | 93.2% | 92.5% | 94.6% | 107% | 0 | > 10 µM |
| CC(C)CNc1ccnc(NCc2csc(-c3ccccc3)n2)n1 [KHS-101] | 99.9% | 97.9% | 102% | 97% | 72.9% | 91.3% | 103% | 98.1% | 85.2% | 53.3% | 104% | 102% | 95.3% | 86.4% | 16.4% | 1.6 | 4.6 | 6.9 |  |  | 1.92 µM | 103% | 99% | 103% | 101% | 78.1% | 0.7 | > 10 µM | 94.1% | 91.6% | 101% | 89.3% | 64.8% | 3.2 |  |
| CC(O)c1cc(C(=O)N[C@@H](C)Cn2ccc(-c3ccc(C#N)c(Cl)c3)n2)n[nH]1 (some centres not stated) [ODM-201] | 98.3% | 98.2% | 103% | 93.4% | 111% | 104% | 89.8% | 102% | 106% | 103% | 88.1% | 111% | 92.6% | 112% | 105% | 0 | 0 | 0 | > 10 µM | > 10 µM | > 10 µM | 95.6% | 101% | 93.1% | 94.5% | 103% | 0 | > 10 µM |  |  |  |  |  |  |  |
| CCOC(=O)c1cc2ccc(O)cc2oc1=O [YZ9] | 99.3% | 94.7% | 92.9% | 103% | 104% | 98.6% | 94.3% | 102% | 98.8% | 99.5% | 98.6% | 103% | 107% | 96.5% | 117% | 0 | 0 | 0 | > 10 µM | > 10 µM | > 10 µM | 92% | 95.5% | 96.3% | 101% | 102% | 0 | > 10 µM |  |  |  |  |  |  |  |
| C[C@H](Nc1ncnc2[nH]cnc12)c1nc2ccc(F)cc2c(=O)n1-c1ccccc1 [acalisib] | 109% | 104% | 106% | 99.4% | 94.3% | 105% | 104% | 91.6% | 102% | 74.9% | 106% | 107% | 109% | 93.7% | 83.6% | 0 | 0.9 | 0.9 | > 10 µM |  | > 10 µM | 104% | 101% | 95.8% | 89.9% | 76.2% | 1.5 | > 10 µM | 107% | 103% | 104% | 93.8% | 65.1% | 2.7 |  |
| O=C(O)CCCCC(=O)O [adipic-acid] | 102% | 96.7% | 99.6% | 103% | 104% | 89% | 87% | 95.1% | 96.6% | 105% | 104% | 108% | 94.4% | 97.4% | 105% | 0 | 0 | 0 | > 10 µM | > 10 µM | > 10 µM | 94.9% | 99.9% | 89.3% | 93.1% | 102% | 0 | > 10 µM |  |  |  |  |  |  |  |
